Tests used:
IFIT3 expression = assay: Ex vivo liver slice assay; type: cell-based; settings: rat liver slice; 24-hour incubation; relative to PBS
Experimental: (§1) In in vitro assays, the potential for toxicity was assessed using a biochemical fluorescent binding assay (FBA) and a liver or kidney slice assay. The FBA is performed by incubating a fluorescent dye with each compound, and immediately measuring fluorescence. Highly fluorescent compounds have the potential to produce toxicity in vivo. The liver or kidney slice assay is performed by incubating a slice of tissue from a core liver sample isolated from rat. Following a 24-hour incubation, RNA is extracted from the tissue slice, and the expression levels of 18 pro-inflammatory genes are measured. An induction in pro-inflammatory gene expression indicates a potential for pro-inflammatory effects in vivo.
Ex vivo assays were performed with liver or kidney tissue slices. The liver or kidney slice assay is performed by incubating a slice of tissue from a core liver or kidney sample isolated from rat. Following a 24-hour incubation, RNA is extracted from the tissue slice, and the expression levels of 18 pro-inflammatory genes, including IFIT, are measured. A log 2 transformation of the fold change (Log2-FC) relative to PBS treatment was performed. An induction in pro-inflammatory gene expression indicates a potential for pro-inflammatory effects in vivo.

IFIT = assay: In vivo acute assay in Sv129 mice; set-up: species or system mouse; settings: single s.c. 300 mg/kg, four days, relative to PBS
Experimental: Additional in vivo toxicology assessments were performed by administering to normal mice (Sv129 mice) a single subcutaneous injection of 300 mg/kg of anti-miR-17 compound. After four days, mice were sacrificed, blood was collected for serum chemistry analysis, liver and spleen were weighed, and RNA was isolated from kidney and liver tissues. The expression level of a pro-inflammatory gene, interferon-induced protein with tetratricopeptide repeats (IFIT), was measured.
An in vivo assay was performed in normal, Sv129 mice. A single, subcutaneous dose of 300 mg/kg of RG4326 was administered. Included as control treatments were PBS, and two anti-miRs not related to miR-17, one known to be pro-inflammatory (positive control) and one that is not pro-inflammatory (negative control). Four days later, mice were sacrificed. Kidney and liver tissue was isolated for RNA extraction. The level of a gene known to be induced during an inflammatory response, IFIT, was measured and normalized to mouse GAPDH. A log 2 transformation of the fold change (Log2-FC) relative to PBS treatment was performed.

[1] = In vitro metabolic stability in human liver lysate; type: in vitro ADME; settings: 24-hour incubation of RG4326
Experimental: Due to their reduced capacity for serum protein binding, which is a property that drives oligonucleotide distribution in the body, short oligonucleotides are not necessarily expected to have pharmacokinetic properties that make them suitable for use as drugs. RG4326 was incubated in mouse, monkey or human liver homogenate. The identity and concentration of RG4326 and metabolites was determined after a 24-hour incubation. RG4326 and metabolites were extracted using liquid-liquid extraction (LLE) and/or solid-phase extraction (SPE), which were then analyzed for identity and concentration using ion-pairing-reversed-phase high performance liquid chromatography coupled with time-of-flight mass spectrometry (IP—RP-HPLC-TOF).

miR-17 targets = assay: miR-17 PD Signature Score in IMCD3 cells (18 genes targeted by miR-17); type: cell-based, mouse; settings: 24-hour transfection, relative to mock-transfection
Experimental: To test the ability of RG4326 to inhibit miR-17 regulation of endogenous targets, miR-17 target gene de-repression was assessed in vitro in several kidney cell types from normal and PKD mouse kidneys. Mouse kidney collecting duct cells (IMCD3) were treated with 0.3 nM, 1.2 nM, 4.7 nM, 18.8 nM, 75 nM, and 300 nM of RG4326 or a control oligonucleotide, RG5124. Additional control groups included untreated cells and mock-transfected cells (cell treated with transfection reagent only). After a 24-hour transfection period, cells were collected and RNA was extracted. The mRNA levels of 18 genes targeted by miR-17 were measured, and averaged to provide a pharmacodynamic signature score (PD Signature Score), represented as Log2 fold-change (Log2FC) relative to mock-transfection.

[2] = Biochemical fluorescent binding assay (FBA); settings: fold change relative to control-treated samples
Experimental: as §1
The potential for toxicity was assessed using a biochemical fluorescent binding assay (FBA). The FBA is performed by incubating a fluorescent dye with each compound, and immediately measuring fluorescence. Results are expressed as fold change (Linear FC) relative to control-treated samples. Highly fluorescent compounds have the potential to produce toxicity in vivo.

[3] = Tissue accumulation in kidney and liver (kidney-to-liver ratio); type: in vivo, mouse; settings: single dose 30 mg/kg, seven days
Experimental: Pharmacokinetic properties and tissue distribution of select compounds were assessed in wild type C57BL6 mice and JCK mice (an experimental model of PKD). Compound was administered to wild type mouse at a dose of 0.3, 3, or 30 mg/kg, or to JCK mice at a dose of 3, 30, or 100 mg/kg. After seven days, mice were sacrificed. Kidney and liver tissues were collected. Concentration of anti-miR-17 compound was measured in liver and kidney. Compounds that accumulate to a greater level in kidney, relative to liver (i.e., have a higher kidney-to-liver ratio) were preferred.
The miPSA was used to assess the potency of each compound, measured by the displacement score, in wild type and JCK mice. Tissue accumulation of anti-miR-17 compound was measured by extraction of compound using liquid-liquid extraction (LLE) and/or solid-phase extraction (SPE), followed by analysis of the identity and concentration of compound using ion-pairing-reversed-phase high performance liquid chromatography coupled with time-of-flight mass spectrometry (IP—RP-HPLC-TOF).
Wild type mice were administered a single dose of 3 mg/kg for the miPSA analysis, and a single dose of 30 mg/kg for the tissue accumulation analysis. JCK mice were administered a single dose of 30 mg/kg for both the miPSA and tissue accumulation analyses. Kidney tissue was collected seven days following the administration of anti-miR-17 compound. […] A higher kidney-to-liver ratio is generally preferred for a disease where the primary site of action is the kidney.

Pkd2-KO mice = assay: Previous study of tool anti-miR-17 in Pkd2-KO mice; type: in vivo, mouse; settings: 20 mg/kg
Experimental: Previous studies using a research tool anti-miR-17 compound identified a role for miR-17 in PKD in two different models of PKD, the Pkd2-KO model (also known as the Pkhd1/cre; Pkd2^F/F model) and the Pcy model. The research tool modified oligonucleotide complementary to miR-17 was tested in mouse models of PKD. The anti-miR-17 compound was a fully phosphorothioated oligonucleotide 19 linked nucleosides in length (5′-CTGCACTGTAAGCACTTTG-3′; SEQ ID NO: 7), with DNA, 2′-MOE and S-cEt sugar moieties.
Pkd2-KO mice spontaneously develop polycystic kidney disease. Mice were treated with 20 mg/kg of tool anti-miR-17 compound or control oligonucleotide, or with PBS.

COC1C(OP(=O)(S)OC[C@H]2O[C@@H](n3cnc4c(N)ncnc43)C(F)C2OP(=O)(S)OC[C@H]2O[C@@H](n3ccc(N)nc3=O)C(F)C2OP(=O)(S)OC[C@H]2O[C@@H](n3ccc(=O)[nH]c3=O)C(F)C2OP(=O)(S)OC[C@H]2O[C@@H](n3ccc(=O)[nH]c3=O)C(OC)C2OP(=O)(S)OC[C@]23O[C@@H](n4ccc(=O)[nH]c4=O)C(O[C@H]2C)C3OP(=O)(S)OC[C@]23O[C@@H](n4cnc5c(=O)[nH]c(N)nc54)C(O[C@H]2C)C3O)[C@@H](COP(=O)(S)OC2C3O[C@@H](C)[C@]2(COP(=O)(S)OC2C4O[C@@H](C)[C@]2(CO)O[C@H]4n2cnc4c(N)ncnc42)O[C@H]3n2cnc3c(=O)[nH]c(N)nc32)O[C@H]1n1ccc(N)nc1=O (stereo in doubt) [RG4326, ASGSCMAFCFUFUMUSGS]
Ex Vivo Liver Slices Assay IFIT3 expression (Log2-FC) (IFIT3 expression): 1.11 ± 0.32 Log2-FC | In Vivo Acute Assay Kidney IFIT expression (Log2-FC) (IFIT): 0.34 (n = 1) Log2-FC | In Vivo Acute Assay Liver IFIT expression (Log2-FC) (IFIT): 0.21 ± 0.08 Log2-FC | Ex Vivo Liver Lysate (% Analyte), Human [1]: 98.7% | miR-17 PD Signature Score, Mean Log2FC (miR-17 targets; 0.3 nM): −0.075 Log2FC | miR-17 PD Signature Score, Mean Log2FC (miR-17 targets; 1.2 nM): −0.067 Log2FC | miR-17 PD Signature Score, Mean Log2FC (miR-17 targets; 4.7 nM): 0.027 Log2FC | miR-17 PD Signature Score, Mean Log2FC (miR-17 targets; 18.8 nM): 0.272 Log2FC | miR-17 PD Signature Score, Mean Log2FC (miR-17 targets; 75 nM): 0.369 Log2FC | miR-17 PD Signature Score, Mean Log2FC (miR-17 targets; 300 nM): 0.373 Log2FC | Biochemical Fluorescence Binding Assay Relative Fluorescence Unit (Linear FC) [2]: 24.9 ± 3.1 Linear FC | Kidney-to-Liver Ratio PKD Mice ([3]; JCK mice): 6.0 | Kidney-to-Liver Ratio Wild Type Mice ([3]; wild type mice): 9.8

5′-CTGCACTGTAAGCACTTTG-3′ (all phosphorothioate, sugars by position and methylation of C not given here; DNA, 2'-MOE and S-cEt sugars) [Tool anti-miR-17, reference compound]
BUN and expression of kidney injury mRNA biomarkers Kim1 and Nga1 (in words) (Pkd2-KO mice): significantly reduced | serum creatinine level and cyst index (in words) (Pkd2-KO mice): trend toward reduced | kidney-to-body weight ratio reduced relative to control treatment (Pkd2-KO mice; p=0.017): 17%

ASCSAMAFUFGFCMASCS [RG5124, reference compound]
miR-17 PD Signature Score, Mean Log2FC (miR-17 targets; 0.3 nM): −0.083 Log2FC | miR-17 PD Signature Score, Mean Log2FC (miR-17 targets; 1.2 nM): −0.103 Log2FC | miR-17 PD Signature Score, Mean Log2FC (miR-17 targets; 4.7 nM): −0.097 Log2FC | miR-17 PD Signature Score, Mean Log2FC (miR-17 targets; 18.8 nM): −0.108 Log2FC | miR-17 PD Signature Score, Mean Log2FC (miR-17 targets; 75 nM): −0.124 Log2FC | miR-17 PD Signature Score, Mean Log2FC (miR-17 targets; 300 nM): −0.065 Log2FC
